1 molecule from PMC9604483, “Crystal Structure of CYP3A4 Complexed with Fluorol Identifies the Substrate Access Channel as a High-Affinity Ligand Binding Site” (International Journal of Molecular Sciences, 2022) can be followed below.

Series [1] concerns the target T1, T224A CYP3A4 (Homo sapiens, UniProt P08684, T224A).
T1 construct: made in house
As to the kind of experiment: Fluorol oxidation in a reconstituted system with cytochrome P450 reductase. It counts as in vitro ADME. To be noted: 25 μM fluorol, 1 μM CYP3A4, 2 μM CPR, 37 °C; substrate/product ratio. On the procedure:
This possibility was tested in a reconstituted system with cytochrome P450 reductase. […] The mass shift of +16 Da implies that fluorol undergoes a single-site oxidation.
Fluorol metabolism—Oxidation of fluorol by WT and T224A CYP3A4 was assessed in a reconstituted system with cytochrome P450 reductase. Reaction was carried out at 37 °C in 100 mM potassium phosphate, pH 7.4, containing catalase and superoxide dismutase (2 units/mL each), 1 μM WT or T224A CYP3A4, 2 μM CPR, NADPH regenerating system (10 mM glucose, 0.2 mM NADP^+, and 2 units/mL glucose-6-phosphate dehydrogenase), and 25 μM fluorol. After addition of 80 μM NADPH, samples were gently shaken, and 0.5 mL aliquots were taken in 15 min intervals. The reaction was stopped by adding 2 mL of dichloromethane. After 30 s vortexing, 1 mL of 0.3 M NaCl was added, and the sample was vortexed again and centrifuged for 10 min at 3000× g and 4 °C. The bottom organic phase (1 mL) was transferred to a glass vial, evaporated under the stream of nitrogen, and dissolved in 150 μL of methanol. Samples were analyzed by electrospray ionization mass spectroscopy using a Micromass LCP Premier mass spectrometer (Waters, Milford, MA, USA) in the negative ion mode, with 0.2 mL/min methanol flow. Chromatogram analysis and integrations were performed with Waters MassLynx MS software.

The next series concerns the target T2, WT CYP3A4 (Homo sapiens, UniProt P08684).
T2 construct: made in house
As to the kind of experiment: Spectral (absorbance) equilibrium titrations of fluorol with CYP3A4. The series is classed as binding. On the procedure: (§1) Because fluorol strongly absorbs in the Soret region (Figure 3A), we conducted reverse rather than direct titrations by adding small amounts of CYP3A4 to the experimental cuvette with 3 μM fluorol solution and to a buffer-containing reference cuvette. Based on the difference absorbance spectra, two spectral phases were distinguished. During the first phase, when [CYP3A4] < 0.5 μM and [fluorol]:[CYP3A4] […], spectral perturbations were detected only in the Soret band (red spectra in Figure 3B,C). The lack of changes in the 380–390 nm region implies that the heme remained in a low-spin state. At [CYP3A4] > 0.5, a decrease in the Soret absorption was accompanied by the appearance of a 385 nm peak, indicating a low-to-high spin transition in the heme. For WT CYP3A4, the first spectral phase was more pronounced, with a ~3-fold larger decrease in the Soret band, whereas the 385 nm peak formed during the second phase was ~20% higher compared to that in the T224A mutant. The difference in the total absorbance change is better seen in Figure 3D, where titration plots for WT and T224A CYP3A4 are compared. The best fittings to the binding isotherms were obtained with a two-binding-site model.
(§2) Spectral Titrations—Equilibrium ligand binding to CYP3A4 was monitored using a Cary 300 spectrophotometer at 23 °C in 50 mM phosphate, pH 7.4, containing 0.6 mg/mL β-cyclodextrin (Santa Cruz Biotechnology, Dallas, TX, USA), using a 10 mm light path cuvette. Ten millimolar stock of fluorol (2-butyl-6-(butylamino)-1H-benzo[de]isoquinoline-1,3(2H)-dione; Exciton, Dayton, OH, USA) dissolved in methanol (ε440 nm = 14.0 mM^−1·cm^−1) was diluted with DMSO to prepare 1–3 mM working solutions. During spectral titrations, small aliquots of WT or T224A CYP3A4 were added to the experimental cuvette with a 3 μM fluorol solution (made from 1 mM stock in DMSO) and to the reference cuvette that contained buffer and the same amount of solvent. Difference absorbance spectra were recorded 5–10 min after fluorol addition, when no further spectral perturbations could be detected. The observed absorbance changes (peak-to-trough difference) were plotted vs. […] and fitted using a nonlinear regression analysis to derive dissociation constants.

Series [2] concerns the target T1, T224A CYP3A4. The description is as above. It counts as binding. Here is the method:
as §1, §2

T1 sequence (P08684 with tags, fused parts or gaps T224A): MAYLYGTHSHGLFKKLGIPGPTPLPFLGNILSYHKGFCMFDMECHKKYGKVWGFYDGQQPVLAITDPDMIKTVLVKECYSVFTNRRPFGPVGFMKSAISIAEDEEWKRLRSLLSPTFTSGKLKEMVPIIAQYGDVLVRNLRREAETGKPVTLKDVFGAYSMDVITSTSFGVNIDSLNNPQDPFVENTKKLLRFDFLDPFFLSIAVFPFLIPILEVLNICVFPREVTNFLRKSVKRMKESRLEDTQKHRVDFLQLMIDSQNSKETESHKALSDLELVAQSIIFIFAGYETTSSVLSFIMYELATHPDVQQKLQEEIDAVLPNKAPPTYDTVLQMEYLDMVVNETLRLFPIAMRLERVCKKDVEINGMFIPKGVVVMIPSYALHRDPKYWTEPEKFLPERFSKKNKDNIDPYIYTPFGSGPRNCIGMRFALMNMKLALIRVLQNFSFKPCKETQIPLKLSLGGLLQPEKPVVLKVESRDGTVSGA
T2 sequence (P08684 with tags, fused parts or gaps): as the sequence (P08684 with tags, fused parts or gaps T224A) above, with A204T counted along it

What is called Kd is a measure of binding affinity in units of concentration. As to `CCCCNc1ccc2c3c(cccc13)C(=O)N(CCCC)C2=O` [fluorol, 2-butyl-6-(butylamino)-1H-benzo[de]isoquinoline-1,3(2H)-dione], the “Efficiency of fluorol oxidation, mutant less efficient than WT” value on T224A CYP3A4 [1] is ~ 20%. On WT CYP3A4 (WT and T224A CYP3A4, spectrophotometric Kd), the “Difference in affinity between the two independent fluorol binding sites” value was 8–10 fold. Besides, the “Decrease in the Soret band during first spectral phase, WT relative to T224A” value on WT CYP3A4 ([CYP3A4] < 0.5 μM) is ~ 3 fold. Also, the “Height of 385 nm peak formed during second phase, WT compared to T224A” value at WT CYP3A4 (higher in WT) is ~ 20%. Besides, the dissociation constant (Kd) at 3 μM at WT CYP3A4 (human, ligand-free WT CYP3A4 protein in buffer, pH 7.4, read-out: Kd, spectrophotometric, low-affinity site) is 4200 ± 500 nM; at T224A CYP3A4 [2] (human, ligand-free T224A mutant CYP3A4 protein in buffer, pH 7.4, ligand-free T224A CYP3A4, read-out: Kd, spectrophotometric, low-affinity site) it was 6600 ± 800 nM. For the same molecule, the “Percentage of the absorbance change due to binding of fluorol to the high-affinity site” value at WT CYP3A4 (ligand-free WT CYP3A4) amounted to 28%; at T224A CYP3A4 [2] (ligand-free T224A CYP3A4), 14%. Besides, the Kd on WT CYP3A4 (ligand-free WT CYP3A4, 3 μM fluorol, 23 °C, 50 mM phosphate pH 7.4, 0.6 mg/mL β-cyclodextrin, read-out: Kd, spectrophotometric, high-affinity site) worked out at 500 ± 40 nM; on T224A CYP3A4 [2] (ligand-free T224A CYP3A4, read-out: Kd, spectrophotometric, high-affinity site), 670 ± 120 nM. Besides, the “Decrease in affinities when the hydroxyl group in Thr224 is eliminated” value on T224A CYP3A4 [2] (T224A vs WT, spectrophotometric Kd) is 25–37%.
